From patent US20090306052A1, “INDENYL DERIVATIVES AND USE THEREOF FOR THE TREATMENT OF NEUROLOGICAL DISORDERS” (Glaxo Group Limited, priority 2004, published 2009) come the findings set out here.

Where only a bound is given, the exact number is not on record here.

In the experiment the target is T1, histamine H3 receptor (Homo sapiens, UniProt Q9Y5N1).
T1 construct: expressed in transfected cells; host or cells: CHO K1 cells carrying the pSwitch regulatory plasmid, transfected with pGeneH3 and induced with mifepristone; clone 3H3; membrane preparation
T1 sequence (Q9Y5N1 whole entry): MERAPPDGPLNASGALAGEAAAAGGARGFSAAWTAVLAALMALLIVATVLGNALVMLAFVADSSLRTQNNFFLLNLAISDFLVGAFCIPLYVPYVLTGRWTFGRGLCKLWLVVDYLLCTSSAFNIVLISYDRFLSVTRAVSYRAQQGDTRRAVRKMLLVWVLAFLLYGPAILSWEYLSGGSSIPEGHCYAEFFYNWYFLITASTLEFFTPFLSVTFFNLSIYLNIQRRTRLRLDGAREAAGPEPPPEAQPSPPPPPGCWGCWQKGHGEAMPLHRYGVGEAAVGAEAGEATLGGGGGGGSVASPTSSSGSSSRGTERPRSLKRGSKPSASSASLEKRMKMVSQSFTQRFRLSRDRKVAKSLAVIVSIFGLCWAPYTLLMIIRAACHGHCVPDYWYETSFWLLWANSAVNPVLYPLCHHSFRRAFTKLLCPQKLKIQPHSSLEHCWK
Briefly: Histamine H3 functional antagonist assay ([35S]-GTPγS SPA, membranes from cultured H3 cells). The class given is biochemical. The settings on record: hydrochloride salts tested; averages of a number of experiments; membrane prepared from cultured H3 cells; read-out: functional pKi (fpKi), histamine H3 functional antagonist assay (converted). From the text: A membrane preparation containing histamine H3 receptors may be prepared in accordance with the following procedures:
DNA encoding the human histamine H3 gene (Huvar, A. et al. (1999) Mol. Pharmacol. 55(6), 1101-1107) was cloned into a holding vector, pcDNA3.1 TOPO (InVitrogen) and its cDNA was isolated from this vector by restriction digestion of plasmid DNA with the enzymes BamH1 and Not-1 and ligated into the inducible expression vector pGene (InVitrogen) digested with the same enzymes. The GeneSwitch™ system (a system where in transgene expression is switched off in the absence of an inducer and switched on in the presence of an inducer) was performed as described in U.S. Pat. Nos. 5,364,791; 5,874,534; and 5,935,934. Ligated DNA was transformed into competent DH5α E. coli host bacterial cells and plated onto Luria Broth (LB) agar containing Zeocin™ (an antibiotic which allows the selection of cells expressing the sh ble gene which is present on pGene and pSwitch) at 50 μg ml^−1. Colonies containing the re-ligated plasmid were identified by restriction analysis. DNA for transfection into mammalian cells was prepared from 250 ml cultures of the host bacterium containing the pGeneH3 plasmid and isolated using a DNA preparation kit (Qiagen Midi-Prep) as per manufacturers guidelines (Qiagen).
CHO K1 cells previously transfected with the pSwitch regulatory plasmid (InVitrogen) were seeded at 2×10e6 cells per T75 flask in Complete Medium, containing Hams F12 (GIBCOBRL, Life Technologies) medium supplemented with 10% v/v dialysed foetal bovine serum, L-glutamine, and hygromycin (100 μg ml^−1), 24 hours prior to use. Plasmid DNA was transfected into the cells using Lipofectamine plus according to the manufacturers guidelines (InVitrogen). 48 hours post transfection cells were placed into complete medium supplemented with 500 μg ml^−1 Zeocin™.
10-14 days post selection 10 nM Mifepristone (InVitrogen), was added to the culture medium to induce the expression of the receptor. 18 hours post induction cells were detached from the flask using ethylenediamine tetra-acetic acid (EDTA; 1:5000; InVitrogen), following several washes with phosphate buffered saline pH 7.4 and resuspended in Sorting Medium containing Minimum Essential Medium (MEM), without phenol red, and supplemented with Earles salts and 3% Foetal Clone II (Hyclone). Approximately 1×10e7 cells were examined for receptor expression by staining with a rabbit polyclonal antibody, 4a, raised against the N-terminal domain of the histamine H3 receptor, incubated on ice for 60 minutes, followed by two washes in sorting medium. Receptor bound antibody was detected by incubation of the cells for 60 minutes on ice with a goat anti rabbit antibody, conjugated with Alexa 488 fluorescence marker (Molecular Probes). Following two further washes with Sorting Medium, cells were filtered through a 50 μm Filcon™ (BD Biosciences) and then analysed on a FACS Vantage SE Flow Cytometer fitted with an Automatic Cell Deposition Unit. Control cells were non-induced cells treated in a similar manner. Positively stained cells were sorted as single cells into 96-well plates, containing Complete Medium containing 500 μg ml^−1 Zeocin™ and allowed to expand before reanalysis for receptor expression via antibody and ligand binding studies. One clone, 3H3, was selected for membrane preparation.
All steps of the protocol are carried out at 4° C. and with pre-cooled reagents. […]
Regarding `O=C1CCCN1c1ccc(Oc2ccc3c(c2)CC(N2CCCC2)C3)nc1` (single isomer, unassigned; enantiomer 1) [Example 4, (−)-Enantiomer 1-(6-{[2-(1-Pyrrolidinyl)-2,3-dihydro-1H-inden-5-yl]oxy}-3-pyridinyl)-2-pyrrolidinone], the Ki was less than 1 nM.
Consider `C[C@H]1CCCN1C1Cc2ccc(Oc3ccc(N4CCCC4=O)cn3)cc2C1` (stereo partly drawn) [Example 20, 1-[6-({2-[(2S)-2-Methyl-1-pyrrolidinyl]-2,3-dihydro-1H-inden-5-yl}oxy)-3-pyridinyl]-2-pyrrolidinone], for which the Ki is less than 1 nM.
Regarding `O=C1CCCN1c1ccc(Oc2ccc3c(c2)CC(N2CCCC2)C3)nc1` (racemic) [Example 3, 1-(6-{[2-(1-Pyrrolidinyl)-2,3-dihydro-1H-inden-5-yl]oxy}-3-pyridinyl)-2-pyrrolidinone], the Ki is less than 1 nM.
In the case of `CNC(=O)c1ccc(Oc2ccc3c(c2)CC(N2CCCC2)C3)nc1` (single isomer, unassigned; (-)) [Example 22, (−)-Enantiomer N-methyl-6-{[2-(1-pyrrolidinyl)-2,3-dihydro-1H-inden-5-yl]oxy}-3-pyridinecarboxamide], the Ki is less than 1 nM.
As for `O=C(c1ccc(Oc2ccc3c(c2)CC(N2CCCC2)C3)nc1)N1CCCC1` (centres unmarked) [Example 12, 5-(1-Pyrrolidinylcarbonyl)-2-{[2-(1-pyrrolidinyl)-2,3-dihydro-1H-inden-5-yl]oxy}pyridine], the Ki was less than 1 nM.
